The test system of experiment [1] is high fructose diet fed Sprague Dawley rats. The experiment can be described thus: Rat High Fructose Model with Fast/Re-Feed. It counts as in vivo. As to the method: Another standard model of human hyperlipidemia and insulin resistance is the rat fed a high fructose diet for several weeks (33). Additionally, since hepatic lipid synthesis is known to be regulated by food consumption, the fast/reefed cycle of Horton et al. (32) was incorporated into the chronic high fructose diet model. A compound disclosed above was evaluated in this model as an agent to restore insulin sensitivity and lower blood lipids.
Eight week old male Sprague Dawley rats were purchased from Harlan, Inc. The rats weighed 200-225 g upon arrival and were divided into groups as detailed in Table 2 and were immediately placed on a high fructose diet (60% kcal fructose; Open Source Diet #D00111301) ad libitum for three weeks. During the last week of feeding the high fructose diet, the rats were dosed with vehicle (5% solutol, 8% β cyclo-dextrin), subject compound at 30 mg/kg or 100 mg/kg or the control compound at 30 mg/kg by oral gavage once daily for 7 days. On the final day, all animals were placed on a […] followed by a 12 hour re-feed period on the high fructose diet ad libitum. Body weights were monitored throughout the protocol. After completing the fast or fast/re-feed conditions, the rats were given avertin for anesthesia by intraperitoneal administration. Whole blood was collected by cardiac puncture and the rats were terminated by cervical dislocation. Livers were collected surgically, weighed and immediately frozen in liquid nitrogen. The blood was placed in Li-heparin treated tubes, centrifuged to collect plasma and the plasma frozen.
The plasma was analyzed by standard colorimetric assays for glucose, insulin, triglycerides and cholesterol.

The test system of experiment [2] is high fat diet fed C57Bl6 mice. The experiment is described as follows: Mouse High Fat Dietary Model with fast/re-feed. In kind it is in vivo. To be noted: for reduced body weight vs Vehicle: fast/re-feed. The method, then:
A standard model of human hyperlipidemia and insulin resistance is the mouse fed a high fat diet for several weeks (31, 33). Additionally, since hepatic lipid synthesis is known to be regulated by food consumption, the fast/re-feed cycle of Horton et al. (32) was incorporated into the chronic high fat diet model. The compound was evaluated in this model as an agent to restore insulin sensitivity and lower blood lipids. The chronic high fat diet was fed to mice to simulate a standard Western diet which is elevated in calories from high fat and carbohydrate intake. This and similar models of dietary induced obesity, insulin insensitivity and elevated serum lipids and cholesterol are used as mouse and rat models of human pathology including hyperlipidemia, type II diabetes, atherosclerosis, obesity, cardiovascular and liver disease. These models have been used as excellent predictors of efficacy in human clinical trials (PPAR and FXR agonists).
The farnesoid X receptor (FXR) is a ligand-activated transcription factor and a member of the nuclear receptor superfamily. […] While the mechanism of action of FXR agonists is clearly distinct from PASK inhibition, WAY-362450 has been used as a positive control compound producing physiologically beneficial changes in glucose and lipid metabolism resembling inhibition of PASK. Throughout these in vivo assays, WAY-362450 has been used as a control compound, and will be referred to as such.
Male C57Bl6 mice were obtained from Jackson Laboratories and had been fed a high fat diet (60% kcal fat) for eight weeks. The mice were fed an identical high fat diet (Research Diet D12492) upon arrival and during the study. All mice were treated with the subject compound at 30 or 100 mg/kg, control compound (WAY-362450) at 30 mg/kg or vehicle by oral gavage daily for three days. On the final day, 10 animals from each group began an 24 hour fast and then were sacrificed (fasted groups 1a,2a,3a,4a). Alternatively, 10 animals from each group underwent a 24 hour fast followed by a 12 hour re-feed period with the same high fat diet ad libitum and then were sacrificed (re-fed groups 1b,2b,3b,4b).
Body weights were monitored at the start and end of the protocol. After completing the fast or fast/re-feed conditions, the mice were given avertin for anesthesia by intraperitoneal administration. Whole blood was collected by cardiac puncture and the mice were terminated by cervical dislocation. Livers were collected surgically, weighed and immediately frozen in liquid nitrogen. The blood was placed in Li-heparin treated tubes, centrifuged to collect plasma and the plasma frozen.
The plasma was analyzed by standard colorimetric assays for glucose, insulin, triglycerides and cholesterol. Frozen liver samples were pulverized and extracted in ethanolic KOH and analyzed for liver triglycerides and cholesterol.

Setting [3] is: 30 mg/kg oral once daily for 7 days.
Where [4] appears, read: fast and re-feed, 30 mg/kg for 7 days.
The mark [5] stands for this setting: 100 mg/kg oral once daily for 7 days.
Setting [6] is: fast and re-feed, 100 mg/kg for 7 days.

For the molecule `CC(C)OC(=O)C1=CN(C(=O)c2ccc(F)c(F)c2)CC(C)(C)c2c1[nH]c1ccccc21` [control compound, WAY-362450, reference compound], in experiment [1] (setting [3]), the “body weight relative to the Vehicle group (FIG. 1)” value is reported as “significant increase in body weight”, the “increase in liver weight” value was “about 2 g” and the increased liver weights entry is on record as “about 15%”. Also, the “effect on plasma glucose concentrations” value in experiment [1] (setting [4]) was “did not alter plasma glucose concentrations”. Further, in experiment [2] (30 mg/kg oral daily for three days), the “effects on liver weight” value is listed as “identical to those of the subject compound at the same dose”.
On to `CC(C)N(C)c1nc2cc(C(=O)O)ccc2nc1-c1ccc(F)cc1` [subject compound], for which the “body weight relative to the Vehicle group (FIG. 1)” value in experiment [1] (setting [3]) is on record as “modest increase in body weight”; in experiment [1] (setting [5]), “modest decrease in body weight”. Also, the “maximal reduction in liver weight” value in experiment [1] (setting [5]) is on record as “about 4%”. Moreover, the entries for the “decrease in plasma glucose vs vehicle” value in experiment [1] (setting [4]) and in experiment [1] (setting [6]) were 21.5% and 26.3%, respectively. Moreover, the “insulin levels reduced vs vehicle” value in experiment [1] (setting [4]) was found to be 15.4%; in experiment [1] (setting [6]) it was 31.4%. For the same molecule, the “plasma cholesterol decreased vs vehicle” value in experiment [1] (setting [4]) is 5.7%; in experiment [1] (setting [6]) it was 10%. In addition, the “reductions in liver weights” value in experiment [2] (30 and 100 mg/kg oral daily for three days) is given as 7-9%. Also, the “decreased plasma glucose vs vehicle” value in experiment [2] (fast and re-feed, 100 mg/kg (highest dose)) is given as “up to 21%”; in experiment [2] (fasted only, 30 mg/kg), 30%; in experiment [2] (fasted only, 100 mg/kg), 43%. Also, the “reduced body weight vs Vehicle” value in experiment [2] (30 mg/kg oral gavage daily for three days) is 2.7%; in experiment [2] (100 mg/kg oral gavage daily for three days) it was 5.1%. Further, the “decreased plasma insulin vs vehicle” value in experiment [2] (fasted and re-fed, 30 mg/kg) is recorded as 10%; in experiment [2] (fasted and re-fed, 100 mg/kg), 28%; in experiment [2] (fasted only, 30 and 100 mg/kg), “up to 26%”. Besides, the “decreased body weight vs Vehicle Fasted” value worked out at 1.8% in experiment [2] (fasted only, 30 mg/kg oral daily for three days) and 5.1% in experiment [2] (fasted only, 100 mg/kg oral daily for three days).
